The NIST ThermoML archive (doi:10.1016/j.jct.2010.08.019)
± gives the expanded uncertainty stated by the source.

Assay: xn = mol fraction of the nth substance listed
Conditions: for surface tension liquid-gas: Wilhelmy-plate method; for viscosity / mass density: 101 kPa, Liquid; for viscosity: Falling or rolling sphere viscometry; for mass density: Vibrating tube method

CC(C)CC(C)(C)C [2,2,4-trimethylpentane] + CC(C)O
Conditions | mass density [kg/m3] | surface tension liquid-gas [mN/m] | viscosity [mPa·s]
293.15 K, x2 = 0 | 691.98 ± 0.18 | 18.8 ± 0.4 | 0.503 ± 0.009
293.15 K, x2 = 0.0501 | 693.38 ± 0.18 | – | 0.502 ± 0.009
293.15 K, x2 = 0.1006 | 695.3 ± 0.18 | 18.8 ± 0.4 | 0.509 ± 0.009
293.15 K, x2 = 0.1512 | 697.45 ± 0.18 | – | 0.517 ± 0.009
293.15 K, x2 = 0.2003 | 699.71 ± 0.18 | 18.9 ± 0.4 | 0.53 ± 0.009
293.15 K, x2 = 0.2501 | 702.18 ± 0.18 | – | 0.543 ± 0.009
293.15 K, x2 = 0.3003 | 704.91 ± 0.17 | 19 ± 0.4 | 0.563 ± 0.009
293.15 K, x2 = 0.3502 | 707.91 ± 0.17 | – | 0.593 ± 0.009
293.15 K, x2 = 0.4004 | 711.2 ± 0.17 | 19 ± 0.4 | 0.628 ± 0.009
293.15 K, x2 = 0.4502 | 714.74 ± 0.17 | – | 0.662 ± 0.01
293.15 K, x2 = 0.5001 | 718.61 ± 0.17 | 19.2 ± 0.4 | 0.699 ± 0.01
293.15 K, x2 = 0.55 | 722.8 ± 0.17 | – | 0.755 ± 0.01
293.15 K, x2 = 0.5998 | 727.34 ± 0.17 | 19.3 ± 0.4 | 0.82 ± 0.01
293.15 K, x2 = 0.6502 | 732.45 ± 0.17 | – | 0.906 ± 0.011
293.15 K, x2 = 0.7002 | 737.93 ± 0.17 | 19.6 ± 0.4 | 1.004 ± 0.011
293.15 K, x2 = 0.7499 | 743.9 ± 0.16 | – | 1.12 ± 0.012
293.15 K, x2 = 0.7999 | 750.57 ± 0.16 | 20 ± 0.4 | 1.264 ± 0.013
293.15 K, x2 = 0.85 | 757.91 ± 0.16 | – | 1.439 ± 0.014
293.15 K, x2 = 0.8999 | 766.04 ± 0.16 | 20.6 ± 0.4 | 1.666 ± 0.015
293.15 K, x2 = 0.95 | 775.2 ± 0.16 | – | 1.96 ± 0.018
303.15 K, x2 = 0 | 683.61 ± 0.18 | 17.9 ± 0.4 | 0.447 ± 0.009
303.15 K, x2 = 0.05 | 684.93 ± 0.18 | – | 0.444 ± 0.009
303.15 K, x2 = 0.1 | 686.65 ± 0.18 | 17.9 ± 0.4 | 0.45 ± 0.009
303.15 K, x2 = 0.1499 | 688.68 ± 0.18 | – | 0.457 ± 0.009
303.15 K, x2 = 0.2004 | 690.94 ± 0.18 | 17.9 ± 0.4 | 0.464 ± 0.009
303.15 K, x2 = 0.2497 | 693.36 ± 0.18 | – | 0.474 ± 0.009
303.15 K, x2 = 0.3 | 696.11 ± 0.18 | 18 ± 0.4 | 0.491 ± 0.009
303.15 K, x2 = 0.3499 | 699.03 ± 0.18 | – | 0.508 ± 0.009
303.15 K, x2 = 0.4008 | 702.3 ± 0.18 | 18 ± 0.4 | 0.532 ± 0.009
303.15 K, x2 = 0.4503 | 705.79 ± 0.17 | – | 0.558 ± 0.009
303.15 K, x2 = 0.5 | 709.61 ± 0.17 | 18.1 ± 0.4 | 0.589 ± 0.009
303.15 K, x2 = 0.5498 | 713.82 ± 0.17 | – | 0.633 ± 0.009
303.15 K, x2 = 0.6001 | 718.44 ± 0.17 | 18.3 ± 0.4 | 0.682 ± 0.01
303.15 K, x2 = 0.65 | 723.45 ± 0.17 | – | 0.745 ± 0.01
303.15 K, x2 = 0.7001 | 728.94 ± 0.17 | 18.6 ± 0.4 | 0.814 ± 0.01
303.15 K, x2 = 0.7495 | 734.92 ± 0.17 | – | 0.899 ± 0.011
303.15 K, x2 = 0.7989 | 741.51 ± 0.17 | 19 ± 0.4 | 0.995 ± 0.011
303.15 K, x2 = 0.8499 | 748.97 ± 0.16 | – | 1.158 ± 0.012
303.15 K, x2 = 0.8997 | 757.15 ± 0.16 | 19.6 ± 0.4 | 1.307 ± 0.013
303.15 K, x2 = 0.95 | 766.32 ± 0.16 | – | 1.485 ± 0.014
313.15 K, x2 = 0 | 675.23 ± 0.18 | 16.9 ± 0.4 | 0.404 ± 0.009
313.15 K, x2 = 0.0499 | 676.34 ± 0.18 | – | 0.398 ± 0.009
313.15 K, x2 = 0.1001 | 677.92 ± 0.18 | 16.9 ± 0.4 | 0.401 ± 0.009
313.15 K, x2 = 0.1503 | 679.86 ± 0.18 | – | 0.405 ± 0.009
313.15 K, x2 = 0.2001 | 682.09 ± 0.18 | 16.9 ± 0.4 | 0.412 ± 0.009
313.15 K, x2 = 0.2499 | 684.47 ± 0.18 | – | 0.42 ± 0.009
313.15 K, x2 = 0.3003 | 687.15 ± 0.18 | 17 ± 0.4 | 0.43 ± 0.009
313.15 K, x2 = 0.3497 | 689.97 ± 0.18 | – | 0.449 ± 0.009
313.15 K, x2 = 0.4 | 693.18 ± 0.18 | 17.1 ± 0.4 | 0.458 ± 0.009
313.15 K, x2 = 0.4502 | 696.67 ± 0.18 | – | 0.476 ± 0.009
313.15 K, x2 = 0.5005 | 700.49 ± 0.18 | 17.2 ± 0.4 | 0.5 ± 0.009
313.15 K, x2 = 0.5499 | 704.67 ± 0.18 | – | 0.529 ± 0.009
313.15 K, x2 = 0.6 | 709.23 ± 0.17 | 17.5 ± 0.4 | 0.569 ± 0.009
313.15 K, x2 = 0.6498 | 714.27 ± 0.17 | – | 0.61 ± 0.009
313.15 K, x2 = 0.6999 | 719.71 ± 0.17 | 17.8 ± 0.4 | 0.657 ± 0.01
313.15 K, x2 = 0.75 | 725.83 ± 0.17 | – | 0.719 ± 0.01
313.15 K, x2 = 0.7998 | 732.49 ± 0.17 | 18.2 ± 0.4 | 0.782 ± 0.01
313.15 K, x2 = 0.8498 | 739.89 ± 0.17 | – | 0.87 ± 0.011
313.15 K, x2 = 0.8999 | 748.21 ± 0.16 | 18.8 ± 0.4 | 0.987 ± 0.011
313.15 K, x2 = 0.9499 | 757.39 ± 0.16 | – | 1.129 ± 0.012
323.15 K, x2 = 0 | 666.8 ± 0.19 | 16.2 ± 0.4 | 0.365 ± 0.009
323.15 K, x2 = 0.0501 | 667.65 ± 0.19 | – | 0.359 ± 0.008
323.15 K, x2 = 0.1 | 669.08 ± 0.19 | 16.2 ± 0.4 | 0.36 ± 0.008
323.15 K, x2 = 0.15 | 670.98 ± 0.19 | – | 0.366 ± 0.009
323.15 K, x2 = 0.1998 | 673.08 ± 0.18 | 16.2 ± 0.4 | 0.37 ± 0.009
323.15 K, x2 = 0.25 | 675.42 ± 0.18 | – | 0.375 ± 0.009
323.15 K, x2 = 0.3 | 677.99 ± 0.18 | 16.2 ± 0.4 | 0.383 ± 0.009
323.15 K, x2 = 0.35 | 680.86 ± 0.18 | – | 0.392 ± 0.009
323.15 K, x2 = 0.4 | 683.93 ± 0.18 | 16.3 ± 0.4 | 0.403 ± 0.009
323.15 K, x2 = 0.4499 | 687.34 ± 0.18 | – | 0.417 ± 0.009
323.15 K, x2 = 0.5 | 691.07 ± 0.18 | 16.4 ± 0.4 | 0.433 ± 0.009
323.15 K, x2 = 0.5501 | 695.17 ± 0.18 | – | 0.456 ± 0.009
323.15 K, x2 = 0.6 | 699.74 ± 0.18 | 16.7 ± 0.4 | 0.479 ± 0.009
323.15 K, x2 = 0.65 | 704.78 ± 0.18 | – | 0.508 ± 0.009
323.15 K, x2 = 0.7 | 710.22 ± 0.17 | 17 ± 0.4 | 0.544 ± 0.009
323.15 K, x2 = 0.7499 | 716.22 ± 0.17 | – | 0.588 ± 0.009
323.15 K, x2 = 0.7999 | 722.88 ± 0.17 | 17.4 ± 0.4 | 0.632 ± 0.009
323.15 K, x2 = 0.85 | 730.48 ± 0.17 | – | 0.696 ± 0.01
323.15 K, x2 = 0.9 | 738.82 ± 0.17 | 18 ± 0.4 | 0.776 ± 0.01
323.15 K, x2 = 0.95 | 748.16 ± 0.17 | – | 0.875 ± 0.011
